Test results reported in the supplement of paper PMC10307832.

Assays:
Experiment in all cases: relative viability (nuclei count vs DMSO), 5 days (fraction); higher = more cells survive
Carboplatin + Foretinib = compound: C1CC(C1)(C(=O)O)C(=O)O.[NH2-].[NH2-].[Pt+2] [Carboplatin] + COc1cc2c(Oc3ccc(NC(=O)C4(C(=O)Nc5ccc(F)cc5)CC4)cc3F)ccnc2cc1OCCCN1CCOCC1 [Foretinib] (partner 0.25 µM)
Procedure, shortened: (§1)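 The day after seeding in 1536-well plates, lung cancer cell lines were treated by pin tool with a single drug, or with a fixed anchor-drug dose together with five library-drug doses (not always all listed) in √10 steps. After 5 days, a combined fix-and-stain solution (final 0.05% Triton X-100, 1% formaldehyde, 1 ug/ml Hoechst) was added. Nuclei counted on 4× images gave relative viability as treated counts over vehicle counts, reported as the median of duplicate plates.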

GSK126 + Luminespib = compound: CC[C@H](C)N1C=C(C2=C(C=C(C=C21)C3=CN=C(C=C3)N4CCNCC4)C(=O)NCC5=C(C=C(NC5=O)C)C)C [GSK126] + CCNC(=O)c1noc(-c2cc(C(C)C)c(O)cc2O)c1-c1ccc(CN2CCOCC2)cc1 [Luminespib] (partner 0.01 µM)
Procedure, shortened: as §1

GSK126 + Foretinib = compound: CC[C@H](C)N1C=C(C2=C(C=C(C=C21)C3=CN=C(C=C3)N4CCNCC4)C(=O)NCC5=C(C=C(NC5=O)C)C)C [GSK126] + COc1cc2c(Oc3ccc(NC(=O)C4(C(=O)Nc5ccc(F)cc5)CC4)cc3F)ccnc2cc1OCCCN1CCOCC1 [Foretinib] (partner 0.25 µM)
Procedure, shortened: as §1

MLN4924 + AZD7762 = compound: NS(=O)(=O)OC[C@@H]1C[C@@H](n2ccc3c(N[C@H]4CCc5ccccc54)ncnc32)C[C@@H]1O [MLN4924] + NC(=O)Nc1cc(-c2cccc(F)c2)sc1C(=O)N[C@H]1CCCNC1 [AZD7762] (partner 0.2 µM)
Procedure, shortened: as §1

Cell Line	relative viability (Carboplatin + Foretinib; first compound 0.08 µM)	relative viability (Carboplatin + Foretinib; first compound 0.253 µM)	relative viability (Carboplatin + Foretinib; first compound 0.8 µM)	relative viability (Carboplatin + Foretinib; first compound 2.53 µM)	relative viability (Carboplatin + Foretinib; first compound 8 µM)	relative viability (GSK126 + Luminespib; first compound 0.08 µM)	relative viability (GSK126 + Luminespib; first compound 0.253 µM)	relative viability (GSK126 + Luminespib; first compound 0.8 µM)	relative viability (GSK126 + Luminespib; first compound 2.53 µM)	relative viability (GSK126 + Luminespib; first compound 8 µM)	relative viability (GSK126 + Foretinib; first compound 0.08 µM)	relative viability (GSK126 + Foretinib; first compound 0.253 µM)	relative viability (GSK126 + Foretinib; first compound 0.8 µM)	relative viability (GSK126 + Foretinib; first compound 2.53 µM)	relative viability (GSK126 + Foretinib; first compound 8 µM)	relative viability (MLN4924 + AZD7762; first compound 0.04 µM)	relative viability (MLN4924 + AZD7762; first compound 0.1265 µM)	relative viability (MLN4924 + AZD7762; first compound 0.4 µM)	relative viability (MLN4924 + AZD7762; first compound 1.265 µM)	relative viability (MLN4924 + AZD7762; first compound 4 µM)
LU99A	0.794	0.749	0.752	0.713	0.522	0.246	0.328	0.208	0.253	0.199	0.826	0.838	0.74	0.746	0.694	0.28	0.214	0.185	0.154	0.114
NCI-H1299	1.13	1.09	1.04	1.05	0.996	–	–	–	–	–	1.14	1.13	1.05	1.07	1.11	–	–	–	–	–
NCI-H1355	0.979	0.994	1.02	0.956	0.895	0.783	0.753	0.777	0.881	0.806	1.05	1.05	0.964	1.09	0.979	0.833	0.875	0.788	0.441	0.234
HCC-15	1.05	1.04	0.969	0.845	0.715	0.494	0.268	0.41	0.286	0.245	1.08	1.04	1.08	1.04	0.887	1.13	0.971	0.645	0.0981	0.125
LXF-289	1.02	0.996	0.992	0.918	0.992	0.736	0.652	0.574	0.661	0.747	0.962	1.01	0.952	0.973	1.02	1.06	0.775	0.691	0.113	0.0848
201T	1.28	1.05	0.917	0.867	0.618	1.01	1.05	1.08	1.12	1.2	1.17	1.1	1.11	1.37	1.33	0.822	0.624	0.391	0.235	0.242
HOP-62	0.984	1	1.07	1.04	0.994	0.938	0.863	0.943	0.889	0.783	1.11	1.08	1.01	1.21	1.04	0.438	0.263	0.111	0.051	0.0648
NCI-H1703	0.446	0.397	0.34	0.403	0.37	–	–	–	–	–	0.354	0.357	0.311	0.373	0.381	0.135	0.126	0.111	0.11	0.123
NCI-H1975	1.08	1.02	0.782	0.88	0.946	0.292	0.257	0.185	0.198	0.12	0.952	0.828	0.886	0.873	0.932	0.636	0.973	1.54	1.79	0.756
NCI-H2023	0.859	0.926	0.897	0.695	0.282	0.728	0.759	0.698	0.656	0.66	1.02	0.885	0.961	1.05	1.15	–	–	–	–	–
EBC-1	0.0979	0.108	0.108	0.0821	0.101	–	–	–	–	–	0.117	0.113	0.0893	0.102	0.0935	–	–	–	–	–
COR-L23	0.948	0.94	0.91	0.729	0.512	0.752	0.702	0.614	0.637	0.608	1.06	0.931	0.921	0.932	1.01	–	–	–	–	–
NCI-H1793	0.939	0.773	0.882	0.718	0.724	0.152	0.177	0.164	0.258	0.152	0.799	0.519	0.581	0.776	0.885	0.714	0.463	0.51	0.406	0.216
A549	1.03	0.991	0.888	0.768	0.741	–	–	–	–	–	1.01	0.974	0.922	0.954	0.904	–	–	–	–	–
CAL-12T	1.1	1.06	1.2	1.02	1.07	0.605	0.552	0.45	0.496	0.636	1.13	1.12	1.09	1	1.25	0.522	0.514	0.365	0.274	0.247
NCI-H1993	1.02	0.903	0.763	0.658	0.744	0.829	0.931	0.363	0.877	0.832	0.704	0.812	0.726	0.845	0.859	0.756	0.572	0.424	0.369	0.405
ChaGo-K-1	0.872	0.993	0.835	0.745	0.579	0.602	0.675	0.556	0.769	0.397	1.07	1.06	0.878	1	0.835	0.861	0.701	0.508	0.193	0.159
SW 900	1.08	0.789	0.677	0.769	0.682	0.206	0.188	0.165	0.173	0.213	0.753	0.817	0.922	0.848	0.909	–	0.806	0.467	0.331	0.259
